The record followed here is ChEMBL document CHEMBL1137189, “Syntheses and anti-MRSA activities of the C3 analogs of mansonone F, a potent anti-bacterial sesquiterpenoid: insights into its structural requirements for anti-MRSA activity” (2004).

≈ marks a conversion by molar mass, not a printed value.

The test system of this experiment is Staphylococcus aureus. As to the kind of experiment: Minimum inhibitory concentration against methicillin-resistant Staphylococcus aureus. Type of experiment: functional.
Turning to `CC1=C2OC=C(C(F)(F)F)c3ccc(C)c(c32)C(=O)C1=O`, the MIC50 (commonly the lowest concentration that inhibits either 50% of growth or 50% of the strains tested, depending on the study) was found to be 16 µg/mL (≈ 54.4 µM) and the MIC90 (usually the lowest concentration that inhibits either 90% of growth or 90% of the strains tested, depending on the study) is > 32 µg/mL.
The corresponding values for `CC1=C2OCCc3ccc(C)c(c32)C(=O)C1=O` are 16 µg/mL (≈ 70.1 µM) and 16 µg/mL (≈ 70.1 µM).
`CC1=COc2c(C)cc([N+](=O)[O-])c3c(C)ccc1c23`: the MIC50 was > 32 µg/mL and the MIC90 is > 32 µg/mL.
`COC1=CC(=O)C(=O)C=C1C`: the MIC50 was > 32 µg/mL and the MIC90 was > 32 µg/mL.
As to `CC1=COc2c(C)ccc3c(C)ccc1c23`, the MIC50 is > 32 µg/mL and the MIC90 was > 32 µg/mL.
The molecule `CCC1(O)COC2=C(C)C(=O)C(=O)c3c(C)ccc1c32` (configuration not stated) yielded an MIC50 of 16 µg/mL (≈ 58.8 µM) and an MIC90 of 16 µg/mL (≈ 58.8 µM).
`CC1=C2OC=Cc3ccc(C)c(c32)C(=O)C1=O` returned an MIC50 of 8 µg/mL (≈ 35.4 µM) and an MIC90 of 8 µg/mL (≈ 35.4 µM).
Molecule `CCC1COC2=C(C)C(=O)C(=O)c3c(C)ccc1c32` (configuration not stated) yielded an MIC50 of 32 µg/mL (≈ 125 µM) and an MIC90 of 32 µg/mL (≈ 125 µM).
`CC1=C2OC=C(C(C)C)c3ccc(C)c(c32)C(=O)C1=O` showed an MIC50 of 4 µg/mL (≈ 14.9 µM) and an MIC90 of 4 µg/mL (≈ 14.9 µM).
In turn, `CCOC(=O)CC1COC2=C(C)C(=O)C(=O)c3c(C)ccc1c32` (configuration not stated) had an MIC50 of 16 µg/mL (≈ 50.9 µM) and an MIC90 of 32 µg/mL (≈ 102 µM).
For `C=CC1=COC2=C(C)C(=O)C(=O)c3c(C)ccc1c32`, in that order: > 32 µg/mL and > 32 µg/mL.
Molecule `CCC1=COC2=C(C)C(=O)C(=O)c3c(C)ccc1c32` yielded an MIC50 of 4 µg/mL (≈ 15.7 µM) and an MIC90 of 4 µg/mL (≈ 15.7 µM).
In turn, `CC1=C2OC=C(C#N)c3ccc(C)c(c32)C(=O)C1=O` returned an MIC50 of 8 µg/mL (≈ 31.8 µM) and an MIC90 of 16 µg/mL (≈ 63.7 µM).
In the case of `CCCCC1=COC2=C(C)C(=O)C(=O)c3c(C)ccc1c32`, the MIC50 came out at 8 µg/mL (≈ 28.3 µM) and the MIC90 amounted to 8 µg/mL (≈ 28.3 µM).
Consider `CC1=C2OCC(CC(=O)O)c3ccc(C)c(c32)C(=O)C1=O` (configuration not stated), for which the MIC50 is > 32 µg/mL and the MIC90 is > 32 µg/mL.
In the case of `CC1=C2OC=C(CCO)c3ccc(C)c(c32)C(=O)C1=O`, the MIC50 is > 32 µg/mL and the MIC90 is > 32 µg/mL.
`CC1=C2OCC(C)(O)c3ccc(C)c(c32)C(=O)C1=O` (configuration not stated): the MIC50 stood at 16 µg/mL (≈ 61.9 µM) and the MIC90 was > 32 µg/mL.
Turning to `COC1=C(C)C(=O)C(=O)c2c(C)cccc21`, the MIC50 was > 32 µg/mL and the MIC90 is > 32 µg/mL.
In the case of `CC1=C2OCC(Cl)(C(F)(F)F)c3ccc(C)c(c32)C(=O)C1=O` (configuration not stated), the MIC50 worked out at 16 µg/mL (≈ 48.4 µM) and the MIC90 is 16 µg/mL (≈ 48.4 µM).
In turn, `CC1=C2OCC(C)c3ccc(C)c(c32)C(=O)C1=O` (configuration not stated) [MANSONONE E] showed an MIC50 of 8 µg/mL (≈ 33 µM) and an MIC90 of 16 µg/mL (≈ 66 µM).
The corresponding values for `CN[C@H](CC(C)C)C(=O)N[C@H]1C(=O)N[C@@H](CC(N)=O)C(=O)N[C@H]2C(=O)N[C@H]3C(=O)N[C@H](C(=O)N[C@H](C(=O)O)c4cc(O)cc(O)c4-c4cc3ccc4O)[C@H](O)c3ccc(c(Cl)c3)Oc3cc2cc(c3O[C@@H]2O[C@H](CO)[C@@H](O)[C@H](O)[C@H]2O[C@H]2C[C@](C)(N)[C@H](O)[C@H](C)O2)Oc2ccc(cc2Cl)[C@H]1O` [VANCOMYCIN] are 2 µg/mL (≈ 1.38 µM) and 2 µg/mL (≈ 1.38 µM).
